Laboratory results taken from patent publication US20210177881A1, “MEDICAMENT FOR PREVENTING AND/OR TREATING PAIN AND/OR FEVER, COMPOSITE PRODUCT AND USE THEREOF” (SHANGHAI TONGLIAN PHARMACEUTICAL CO., LTD., priority 2018, published 2021).

Legend:
[1] = literature reports; cited from earlier work
[2] = test system: rats of the dry yeast fever model; experiment: Common fever model of rats induced by dry yeast; format: in vivo; details: 30 mg/kg intragastric
Protocol: Male SD rats, with a weight of 220-260 g, were fed adaptively for 3 days, ate food and drank water freely with 12 hours of day-night circle. […] Each group was administrated with the drug based on 1 ml/100 g body weight by intragastric administration. […] Operating steps: except that the LPS in Experiment 1 was replaced by the dry yeast, other experimental operating steps and dosage selections were the same as those in Experiment 1.

[3] = test system: rats of the LPS fever model; experiment: LPS-induced common fever model in rats; format: in vivo, Sprague Dawley rats; details: 30 mg/kg intragastric
Protocol: Male healthy Sprague Dawley rats (SPF), with a weight of 220-260 g, purchased from Liaoning Changsheng Biotechnology Co., Ltd., with a license number of SCXK (Liao) 2015-0001. […] Sodium chloride injection ([…], 500 mL): (Shijiazhuang No.4 Pharmaceutical Co., Ltd), Batch number: 101217406; 0.9% sodium chloride injection was dissolved and diluted to 1 mg/ml, then packed in EP tubes and stored at −80 DEG C. for later use; immediately before use, it was diluted with 0.9% sodium chloride injection into a sterile injection of 10 μg /ml(100 μg /kg). Male SD rats, with a weight of 220-260 g, were fed adaptively for 3 days, ate food and drank water freely with 12 hours of day-night circle. […] Each group was administrated with the drug based on 1 ml/100 g body weight by intragastric administration.

mice [4] = experiment: Analgesia experiment on a hot plate in mice; format: in vivo, Kunming mice; details: 15 mg/kg
Text: The mouse hot plate method is a classic method for screening analgesics. Its principle is to put the mouse on a hot plate heated to a constant temperature of (55±0.1 DEG C.) in advance, and when the foot of the mouse is stimulated by the hot plate to produce pain, the time required for foot licking is taken as the pain threshold, which is taken as the observation index, and the changes of threshold before and after medication are compared to evaluate the analgesic effect.
Before the experiment, the mice in each group were given intragastric administration. The mice in the blank control group were given the same volume of normal saline every day for 3 consecutive days.
The mice were put on a hot plate pain meter heated to 55 DEG C. in advance, and the time from putting into the hot plate to licking hind feet was recorded with a stopwatch as the pain threshold of the mice. […] It was measured once at 30, 60, 90 and 120 min after administration. After the end of the experiment, the percentage of pain threshold increase was calculated according to the measured average value of pain threshold. The percentage of pain threshold increase %=(an average pain threshold after administration−an average pain threshold before administration)÷the average pain threshold before administration×100%.

mice [5] = experiment: Analgesic experiment of writhing method in mice (acetic acid); format: in vivo, Kunming mice; details: 15 mg/kg once on the day of the experiment
[6] = test system: rats with tibial cancer pain; experiment: van Frey mechanical pain threshold in rats with tibial cancer pain (Walker256); format: in vivo, rat
Protocol: Walker rat breast cancer cells were purchased from Shanghai Institute of Biomedical Engineering. The abdominal cavity of female Wistar rats of 70-80 g was inoculated with 1 ml of ascites tumor (about 2×10^7 cells /ml). After 7-10 days, 5 ml of ascites was extracted and centrifuged for 3 minutes (1300 rpm). After precipitation, washing was performed with 10 ml PBS, and then centrifuged and precipitated again. Then, resuspending was performed with PBS, counting was performed, the cell concentration was adjusted to 1×10^7 cells/ml by PBS and placed in an ice box for later use.
Rats were anesthetized by intraperitoneal injection of 10% chlorate hydrate (4 ml/kg body weight), a skin was prepared at the right knee joint, and the skin was disinfected with 75% alcohol. The knee joint was fixed with the left hand to make the skin on its surface tense. A hole with a depth about 1 cm was drilled along the longitudinal axis of tibia at the medial edge of patellar ligament of the knee joint with a 7# needle. Then, a microsampler with tumor cells (before injection, 1 μl of air, 2 μl of gelatin sponge aqueous solution, 1 μl of air, 4 μl of tumor cells or PBS were inhaled in turn) was used, and 4 μl of tumor cells was injected into the tibia bone marrow cavity; The rats in the control group were injected with the same amount of PBS, and finally all of them were sealed with 2 μl of gel sponge solution. After injection, the needles were kept for 1 minute to prevent the injection from oozing out.
Rats were divided into two groups: a PBS injection control group and a Walker256 model group. The radiation paw withdrawal latency (PWL) was measured before modeling as the basic pain threshold, and the PWL was measured every other day after modeling as the thermal hyperalgesia threshold. At the same time, the mechanical pain caused by von Frey filament was measured. The threshold of mechanical pain was measured before modeling as the basic pain threshold, and the threshold of mechanical allodynia was measured every other day after modeling.
After successfully establishing the model of tibia cancer pain, continuous intragastric administration was performed for 12 days. The rats in the model group were intragastrically given the same volume of normal saline.

[7] = 15 mg/kg on the last day, same side

spiramycin
absolute oral bioavailability [1]: 30-40%

CC(C)Cc1ccc(C(C)C(=O)O)cc1 (centres unmarked) [ibuprofen, Ibuprofen]
after administration ΔT ([2]; 1 h): 0.26 ± 0.26 °C
after administration ΔT ([2]; 2 h): 0.40 ± 0.31 °C
after administration ΔT ([2]; 4 h): 0.54 ± 0.38 °C
after administration ΔT ([3]; 1 h): 0.27 ± 0.27 °C
after administration ΔT ([3]; 2 h): 0.33 ± 0.43 °C
after administration ΔT ([3]; 4 h): 0.34 ± 0.38 °C
after administration ΔT ([3]; 6 h): 1.23 ± 0.24 °C
after administration ΔT ([3]; 8 h): 1.32 ± 0.24 °C
after administration ΔT ([3]; 10 h): 1.23 ± 0.39 °C

CN1CC[C@]23c4c5ccc(O)c4O[C@H]2[C@@H](O)C=C[C@H]3[C@H]1C5.Cl [positive control, morphine hydrochloride]
Percentage of pain threshold increase (mice [4]; 30 min): 68.11%
Percentage of pain threshold increase (mice [4]; 60 min): 54.01%
Percentage of pain threshold increase (mice [4]; 90 min): 51.90%
Percentage of pain threshold increase (mice [4]; 120 min): 38.17%
analgesic rate (mice [5]): 45.83%
times of writhing (mice [5]): 30.17 ± 6.14 n
analgesic rate, opposite side ([6]; 15 mg/kg on the last day): 133.3%
van Frey mechanical pain threshold, opposite side ([6]; 15 mg/kg on the last day): 6.3 ± 0.5 g
analgesic rate, same side [6, 7]: 205.5%
van Frey mechanical pain threshold, same side [6, 7]: 5.5 ± 0.2 g
analgesic rate, opposite side ([6]; 80 mg/kg intragastric, 12 days): 125.9%
van Frey mechanical pain threshold, opposite side ([6]; 80 mg/kg intragastric, 12 days): 6.1 ± 0.2 g
van Frey mechanical pain threshold, same side ([6]; 80 mg/kg intragastric, 12 days, same side): 5.2 ± 0.6 g
